This note sets out measurements from patent publication US20070203066A1, “Compositions and methods for inhibiting cellular proliferation” (priority 2005, published 2007).

Non-standard residues stand in square brackets, D forms with d. Primed or numbered codes have the meaning given here. No end group written: not given here. Ida = iminodiacetic acid linker, its two carboxyls bind the Lys side-chain amines of two peptides, giving a homodimer; Ida(3) = iminodiacetic acid linker, Lys side-chain amines bound to its two carboxyl groups; Ida(4) = iminodiacetic acid linker (dimerization linker bound to lysine side chain); Cha = N[C@@H](CC1CCCCC1)C(=O)O; Phg = N[C@H](C(=O)O)c1ccccc1 Where only a bound is given, the exact number is not on record here.

For the assay, the system named is HUVECs. It counts as cell-based. The following applies: HUVEC proliferation, bFGF at 10 ng/ml or VEGF at 5 ng/ml, 48 hours, BrdU incorporation; read-out: IC50 on HUVECs. An outline of the steps: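 HUVECs seeded at 5,000 cells/well in EBM with 2% FCS, adhered ≥12 hours, then stimulated with bFGF 10 ng/ml or VEGF 5 ng/ml plus varying peptide concentrations. After 48 hours at 37 ° C, 5% CO2, proliferation inhibition read by BrdU incorporation.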
One may read the IC50 as the concentration that inhibits the measured activity by half. Regarding “513 (Ac-ARRRRIRVAIYFK; not fully specified (C-terminus); also: homodimer via Ida linker at Lys13 side chain) [compound 513]”, the IC50 was in the range of 10 to 30 µM.
The figure for “461 (Ac-ARRRK(Ida(3))QAVAIYF; also: homodimer via Ida linker on Lys side chains, linker at 5 via Ida, other end not in the chain) [compound 461]” is 10 to 30 µM; for “276 (XRRRRQHVRIYFK; not fully specified; Xaa = Acylated Histidine; The side chain of Lysine at position 13 is covalently bound to an Ida linker forming a homodimer of residues 1 through 13.) [compound 276]” it is less than 10 µM; for “171 (Ac-RRRRRQRVRIIFK; also: homodimer via GP3-PEG 20 kDa linker on Lys13 side chains) [compound 171]” it is less than 10 µM.
Take “285 (Ac-RRRRHQAVHIYFK-NH2; not fully specified (residue 13); also: homodimer via Ida linker on Lys13 side chain) [compound 285]”: the IC50 was less than 10 µM.
The figure for “275 (Ac-RARRRQAVAIYFK-NH2; not fully specified (residue 13); also: homodimer via Ida linker on Lys13 side chain) [compound 275]” is less than 10 µM; for “367 (Ac-ARRRRQRVAPYFK-NH2; not fully specified (residue 13); also: homodimer of residues 1-13 via Ida linker on K13 side chain) [compound 367]” it is greater than 30 µM; for “173 (Ac-ARRRRQRVRIIF; also: homodimer: C-terminal Phe12 of each chain bound to one amino group of a Lys linker) [compound 173]” it is less than 10 µM.
In the case of “433 (Ac-RRRREQAVAIYFK(Ida(4)); not fully specified (C-terminus); also: homodimer via Ida linker at K13) [compound 433]”, the concentration for half-maximal inhibition (IC50) was 10 to 30 µM.
Turning to “272 (Ac-RARRRQAVAINFK-NH2; not fully specified (residue 13); also: homodimer via Ida linker on Lys13 side chain) [compound 272]”, the IC50 was less than 10 µM.
KTKRKRKKQRVKRAYEEIF [compound 136]: the IC50 was greater than 30 µM.
The figure for “472 (Ac-PRRRGQAVAIYFK(Ida(3)); not fully specified (C-terminus); also: homodimer via Ida linker on Lys13 side chain) [compound 472]” is greater than 30 µM; for “302 (Ac-RRRRRQAVRIAIAFK(Ida)-NH2; also: homodimer via Ida linker on Lys15 side chain) [compound 302]” it is less than 10 µM.
With “341 (Ac-RRHRHQRVHIYFK(Ida(3))-NH2; also: homodimer via Lys13 side chain, Ida linker (Ida amino group Boc)) [compound 341]” the figure was less than 10 µM; with KTKRKRKKQRVKIAYEEIM [compound 42], greater than 30 µM.
The figure for “332 (XRRRHQHVRIYFK; not fully specified; Xaa = Acylated Histidine; The side chain of Lysine at position 13 is covalently bound to an Ida linker forming a homodimer of residues 1 through 13.) [compound 332]” is less than 10 µM; for RKRKKQRVKIIFV [compound 90] it is 10 to 30 µM.
For the substance “394 (Ac-ARRRRQAVSIYFK; not fully specified (residue 13, C-terminus); also: homodimer of residues 1-13 via Ida linker at Lys13 side chain) [compound 394]”, the IC50 is less than 10 µM.
With “460 (Ac-ARRK(Ida(3))RQAVAIYF; also: homodimer via Ida linker on Lys side chains, linker at 4 via Ida, other end not in the chain) [compound 460]” the figure was 10 to 30 µM; with “309 (Ac-RRRRRQAK(Ida)RIIFV; also: homodimer via Ida linker on Lys8 side chain) [compound 309]”, less than 10 µM; with “362 (Ac-ARRRRQRVA[Cha]YFK-NH2; not fully specified (residue 13); also: homodimer: Lys13 side chains joined by Ida (iminodiacetic acid) linker) [compound 362]”, less than 10 µM.
With “196 (Ac-ARRRRQRVAIIF; also: dimer: C-terminal Phe bound to an amino group of a Lys linker, 2 chains per Lys) [compound 196]” the figure was less than 10 µM.
The figure for “347 (Ac-ARRRRQRVAIYTK-NH2; not fully specified (residue 13); also: homodimer of residues 1-13 via Ida linker on Lys13 side chain) [compound 347]” is greater than 30 µM; for “510 (Ac-ARRRRERVAIYFK; not fully specified (C-terminus); also: homodimer via Ida linker at Lys13 side chain) [compound 510]” it is less than 10 µM.
Take “204 (Ac-RRARRQAVRIIF; also: dimer: C-terminal Phe bound to an amino group of a Lys linker, 2 chains per Lys) [compound 204]”: the half-maximal inhibitory concentration (IC50) was less than 10 µM.
With KTKRKRKKQAVKIIFVQNM [compound 114] the figure was greater than 30 µM.
The figure for TKRKRKKQRVKIAYEEIFVQNM [compound 19] is greater than 30 µM; for “343 (Ac-ARRRRQRVAIY[Phg]K-NH2; not fully specified (residue 13); also: homodimer via Lys13 side chain, Ida linker) [compound 343]” it is less than 10 µM.
With “208 (Ac-RRRARQRVAIIF; also: dimer: Phe C-termini joined via Lys linker) [compound 208]”, the IC50 is less than 10 µM.
Consider “232 (XRRRHQRVRIIF; Xaa = Acylated Histidine; Dimeric peptide wherein the C terminus of Phe in position 12 of one peptide chain is covalently bound to one of the amino groups of a Lysine linker and Phe of the remaining peptide chain is covalently bound to the other amino group of the Lysine linker.) [compound 232]”, for which the IC50 was less than 10 µM.
Regarding “448 (Ac-RRRRRQAAAAAAK(Ida(4)); not fully specified (C-terminus); also: homodimer via Ida linker at K13) [compound 448]”, the IC50 was greater than 30 µM.
With “219 (Ac-RRARRQAVAIIF; also: dimer: Phe C-termini joined via Lys linker) [compound 219]” the figure was less than 10 µM; with KTKRKRKKQRVKIAYEEIFVQN [compound 25], less than 10 µM; with “211 (Ac-RRRRRQAVAIIF; also: dimer: Phe C-termini joined via Lys linker) [compound 211]”, less than 10 µM.
As to “193 (Ac-ARRARQRVRIIF; also: dimer: C-terminal Phe bound to an amino group of a Lys linker, 2 chains per Lys) [compound 193]”, the IC50 is less than 10 µM.
The figure for KRKRKKQRVKIAYEEIFV [compound 61] is 10 to 30 µM; for “277 (XRRRRQRVHIYFK; not fully specified; Xaa = Acylated Histidine; The side chain of Lysine at position 13 is covalently bound to an Ida linker forming a homodimer of residues 1 through 13.) [compound 277]” it is less than 10 µM.
The figure for KTKRKRKKQRVAIIFVQNM [compound 112] is less than 10 µM.
With “390 (Ac-ARRRRQAVMIYFK; not fully specified (residue 13, C-terminus); also: homodimer of residues 1-13 via Ida linker at Lys13 side chain) [compound 390]” the figure was less than 10 µM; with KTKRKRKKQRVKIIFVQNM [compound 33], less than 10 µM.
In the case of KRKKQRVKIIF [compound 83], the IC50 was greater than 30 µM.
The figure for “468 (Ac-ARRIRQAVAIYFK(Ida(3)); not fully specified (C-terminus); also: homodimer via Ida linker on Lys13 side chain) [compound 468]” is greater than 30 µM; for “398 (Ac-ARRRRQAVLIYFK; not fully specified (residue 13, C-terminus); also: homodimer of residues 1-13 via Ida linker at Lys13 side chain) [compound 398]” it is less than 10 µM.
The figure for KRKRKKQRVKIAYEEIFVKNM [compound 3] is 10 to 30 µM; for AAKRKRKKQRVKIAYEEIFVQNM [compound 72] it is 10 to 30 µM; for “249 (Ac-RRRRRQAVAIEFK; not fully specified (C-terminus); also: homodimer: side chain of Lys13 bound to an Ida linker) [compound 249]” it is 10 to 30 µM.
With KTKRKRAKQRVKIIFVQNM [compound 117] the figure was less than 10 µM.
Regarding “465 (Ac-ARRQRQAVAIYFK(Ida(3)); not fully specified (C-terminus); also: homodimer via Ida linker on Lys13 side chain) [compound 465]”, the IC50 is less than 10 µM.
In the case of “262 (Ac-AR[dR]RRQRVAIIFK-NH2; not fully specified (residue 13); also: homodimer via Ida linker on Lys13 side chains) [compound 262]”, the IC50 was less than 10 µM.
With KKQRVKIAYEEIFVQNM [compound 24] the figure was greater than 30 µM.
